Data set [1] can be described thus: molar enthalpy of vaporization or sublimation. The following applies: 298.15 K; Liquid; Calvet microcalorimetry.
The conditions of data set [2]: 298.15 K; Liquid; Calvet microcalorimetry.

± gives the expanded uncertainty stated by the source.

On to `CCOC(=O)Cc1ccsc1` [ethyl 3-thiopheneacetate], for which the molar enthalpy in data set [1] is 15.1 ± 0.621 kcal/mol.

Take `CCOC(=O)Cc1cccs1` [ethyl 2-thiopheneacetate]: the molar enthalpy in data set [1] was found to be 14.8 ± 0.621 kcal/mol.

For `COC(=O)c1cccs1` [methyl 2-thiophenecarboxylate], the “molar enthalpy of vaporization” value in data set [2] worked out at 13.8 ± 0.574 kcal/mol.

For the molecule `CCOC(=O)c1cccs1` [ethyl 2-thiophenecarboxylate], the “molar enthalpy of vaporization” value in data set [2] stood at 13.5 ± 0.621 kcal/mol.

The record behind these values is the NIST ThermoML archive (doi:10.1016/j.jct.2009.03.007).
